Experimental data reported in PubChem BioAssay (NCI).
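Five compound concentrations were applied to cells in 96-well plates for 48 hours; endpoints were derived by simple linear interpolation of the resulting dose-response curve. TGI is the concentration that stops growth completely.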

Assays:
Experiment in all cases: growth of human tumour cells (NCI), 48 h
HS 578T breast = system: HS 578T breast
UACC-257 melanoma = system: UACC-257 melanoma
IGROV1 ovarian = system: IGROV1 ovarian
NCI-H522 lung = system: NCI-H522 lung
SF-268 CNS = system: SF-268 CNS
OVCAR-5 ovarian = system: OVCAR-5 ovarian
ACHN renal = system: ACHN renal
U251 CNS = system: U251 CNS
SR leukemia = system: SR leukemia
OVCAR-4 ovarian = system: OVCAR-4 ovarian
SK-OV-3 ovarian = system: SK-OV-3 ovarian
SF-295 CNS = system: SF-295 CNS
SK-MEL-28 melanoma = system: SK-MEL-28 melanoma
HCT-116 colon = system: HCT-116 colon
PC-3 prostate = system: PC-3 prostate
MDA-N = system: MDA-N
MOLT-4 leukemia = system: MOLT-4 leukemia
SNB-75 CNS = system: SNB-75 CNS
HT29 colon = system: HT29 colon
SW-620 colon = system: SW-620 colon
M14 melanoma = system: M14 melanoma
SK-MEL-5 melanoma = system: SK-MEL-5 melanoma
NCI/ADR-RES ovarian = system: NCI/ADR-RES ovarian
COLO 205 colon = system: COLO 205 colon
OVCAR-8 ovarian = system: OVCAR-8 ovarian
T-47D breast = system: T-47D breast
MCF7 breast = system: MCF7 breast
SF-539 CNS = system: SF-539 CNS
EKVX NSCLC = system: EKVX NSCLC
NCI-H460 lung = system: NCI-H460 lung
786-0 renal = system: 786-0 renal
HCC-2998 colon = system: HCC-2998 colon
HOP-62 NSCLC = system: HOP-62 NSCLC
K-562 leukemia = system: K-562 leukemia
MDA-MB-231 breast = system: MDA-MB-231 breast
HL-60(TB) leukemia = system: HL-60(TB) leukemia
TK-10 renal = system: TK-10 renal
UO-31 renal = system: UO-31 renal
MDA-MB-435 = system: MDA-MB-435
SN12C renal = system: SN12C renal
A549 NSCLC = system: A549 NSCLC
KM12 colon = system: KM12 colon
RPMI-8226 leukemia = system: RPMI-8226 leukemia
SNB-19 CNS = system: SNB-19 CNS
HCT-15 colon = system: HCT-15 colon
CCRF-CEM leukemia = system: CCRF-CEM leukemia
NCI-H226 lung = system: NCI-H226 lung
HOP-92 NSCLC = system: HOP-92 NSCLC
LOX IMVI melanoma = system: LOX IMVI melanoma
CAKI-1 renal = system: CAKI-1 renal
DU-145 prostate = system: DU-145 prostate
OVCAR-3 ovarian = system: OVCAR-3 ovarian
BT-549 breast = system: BT-549 breast
MALME-3M melanoma = system: MALME-3M melanoma
SK-MEL-2 melanoma = system: SK-MEL-2 melanoma
UACC-62 melanoma = system: UACC-62 melanoma
NCI-H23 lung = system: NCI-H23 lung
RXF 393 renal = system: RXF 393 renal
A498 renal = system: A498 renal

CC(=O)OC1CC[C@@]2(C)C(C1)CC(OC(C)=O)[C@@H]1C2CC(OC(C)=O)[C@]2(C)C(C(C)CC=C(c3ccc(Cl)cc3)c3ccc(Cl)cc3)CCC12 (stereo partly drawn)
TGI (HS 578T breast): > 100 µM | TGI (UACC-257 melanoma): > 100 µM | TGI (IGROV1 ovarian): > 100 µM | TGI (NCI-H522 lung): > 100 µM | TGI (SF-268 CNS): > 100 µM | TGI (OVCAR-5 ovarian): > 100 µM | TGI (ACHN renal): > 100 µM | TGI (U251 CNS): > 100 µM | TGI (SR leukemia): > 100 µM | TGI (OVCAR-4 ovarian): > 100 µM | TGI (SK-OV-3 ovarian): > 100 µM | TGI (SF-295 CNS): > 100 µM | TGI (SK-MEL-28 melanoma): > 100 µM | TGI (HCT-116 colon): > 100 µM | TGI (PC-3 prostate): > 100 µM | TGI (MDA-N): > 100 µM | TGI (MOLT-4 leukemia): > 100 µM | TGI (SNB-75 CNS): > 100 µM | TGI (HT29 colon): > 100 µM | TGI (SW-620 colon): > 100 µM | TGI (M14 melanoma): > 100 µM | TGI (SK-MEL-5 melanoma): > 100 µM | TGI (NCI/ADR-RES ovarian): > 100 µM | TGI (COLO 205 colon): > 100 µM | TGI (OVCAR-8 ovarian): > 100 µM | TGI (T-47D breast): > 100 µM | TGI (MCF7 breast): > 100 µM | TGI (SF-539 CNS): > 100 µM | TGI (EKVX NSCLC): > 100 µM | TGI (NCI-H460 lung): > 100 µM | TGI (786-0 renal): > 100 µM | TGI (HCC-2998 colon): > 100 µM | TGI (HOP-62 NSCLC): > 100 µM | TGI (K-562 leukemia): > 100 µM | TGI (MDA-MB-231 breast): > 100 µM | TGI (HL-60(TB) leukemia): 27.9 µM | TGI (TK-10 renal): > 100 µM | TGI (UO-31 renal): > 100 µM | TGI (MDA-MB-435): > 100 µM | TGI (SN12C renal): > 100 µM | TGI (A549 NSCLC): > 100 µM | TGI (KM12 colon): > 100 µM | TGI (RPMI-8226 leukemia): 56.8 µM | TGI (SNB-19 CNS): > 100 µM | TGI (HCT-15 colon): > 100 µM | TGI (CCRF-CEM leukemia): 95.2 µM

C[S+](C)CC(=O)c1ccc2c(c1)Sc1ccccc1O2
TGI (HS 578T breast): 22.1 µM | TGI (UACC-257 melanoma): 18.2 µM | TGI (IGROV1 ovarian): 8.1 µM | TGI (NCI-H522 lung): 2.5 µM | TGI (SF-268 CNS): 14.6 µM | TGI (OVCAR-5 ovarian): 18.8 µM | TGI (ACHN renal): 16.1 µM | TGI (U251 CNS): 17.6 µM | TGI (NCI-H226 lung): 11.5 µM | TGI (HOP-92 NSCLC): 21.5 µM | TGI (SR leukemia): > 50.9 µM | TGI (LOX IMVI melanoma): 20.9 µM | TGI (OVCAR-4 ovarian): 15.4 µM | TGI (SK-OV-3 ovarian): 19.6 µM | TGI (SF-295 CNS): 16 µM | TGI (SK-MEL-28 melanoma): 25.1 µM | TGI (HCT-116 colon): 7.32 µM | TGI (PC-3 prostate): 4.03 µM | TGI (MOLT-4 leukemia): > 94.4 µM | TGI (SNB-75 CNS): 14.2 µM | TGI (HT29 colon): 9.15 µM | TGI (SW-620 colon): > 43.2 µM | TGI (M14 melanoma): 3.48 µM | TGI (SK-MEL-5 melanoma): 2.92 µM | TGI (CAKI-1 renal): 15 µM | TGI (NCI/ADR-RES ovarian): > 39.7 µM | TGI (OVCAR-8 ovarian): 13.6 µM | TGI (T-47D breast): > 44.4 µM | TGI (DU-145 prostate): 11 µM | TGI (MCF7 breast): 7.28 µM | TGI (OVCAR-3 ovarian): 7.58 µM | TGI (SF-539 CNS): 2.29 µM | TGI (EKVX NSCLC): 14.4 µM | TGI (NCI-H460 lung): 16.2 µM | TGI (786-0 renal): 9.49 µM | TGI (HCC-2998 colon): 7.71 µM | TGI (BT-549 breast): 6.17 µM | TGI (HOP-62 NSCLC): 28.4 µM | TGI (K-562 leukemia): > 100 µM | TGI (MALME-3M melanoma): 12 µM | TGI (MDA-MB-231 breast): 18.7 µM | TGI (SK-MEL-2 melanoma): 10 µM | TGI (HL-60(TB) leukemia): > 100 µM | TGI (UACC-62 melanoma): 9.38 µM | TGI (TK-10 renal): 16.3 µM | TGI (UO-31 renal): 12 µM | TGI (MDA-MB-435): 10.1 µM | TGI (SN12C renal): 36.3 µM | TGI (NCI-H23 lung): 14 µM | TGI (A549 NSCLC): 18.1 µM | TGI (KM12 colon): 2.87 µM | TGI (RPMI-8226 leukemia): > 39.2 µM | TGI (RXF 393 renal): 9.23 µM | TGI (SNB-19 CNS): 17.1 µM | TGI (HCT-15 colon): 13.2 µM | TGI (A498 renal): 26.9 µM | TGI (CCRF-CEM leukemia): > 100 µM
